From US7148249B2, “Indolinones substituted by heterocycles, the preparation thereof and their use as medicaments” (Boehringer Ingelheim Pharma GmbH & Co. KG, priority 2002, dated 2006) come the findings set out here.

Broadly, the IC50 is the point on the concentration scale where inhibition reaches its midpoint.

The first experiment deals with Human umbilical endothelial cells (HUVEC). The experiment is described as follows: Inhibition of VEGF165-stimulated HUVEC proliferation (3H-thymidine incorporation). As to conditions: HUVEC proliferation stimulated with 5 ng/ml VEGF165 and 10 μg/ml heparin; 76 h incubation + 16 h 3H-thymidine. Type of experiment: cell-based. On the procedure: Human umbilical endothelial cells (HUVEC) were cultivated in IMDM (Gibco BRL), supplemented with 10% foetal calf serum (FBS) (Sigma), 50 μM of β-mercaptoethanol (Fluka), standard antibiotics, 15 μg/ml of endothelial cell growth factor (ECGS, Collaborative Biomedical Products) and 100 μg/ml of heparin (Sigma) on gelatine-coated culture dishes (0.2% gelatine, Sigma) at 37° C., under 5% CO2 in a water-saturated atmosphere.
In order to investigate the inhibitory activity of the compounds according to the invention the cells were “starved” for 16 hours, i.e. kept in culture medium without growth factors (ECGS+heparin). The cells were detached from the culture dishes using trypsin/EDTA and washed once in serum-containing medium. Then they were seeded out in amounts of 2.5×10^3 cells per well.
The proliferation of the cells was stimulated with 5 ng/ml of VEGF165 (vascular endothelial growth factor; H. Weich, GBF Braunschweig) and 10 μg/ml of heparin. As a control, 6 wells in each dish were not stimulated.
The compounds according to the invention were dissolved in 100% dimethylsulphoxide and added to the cultures in various dilutions as triple measurements, the maximum dimethylsulphoxide concentration being 0.3%.
The cells were incubated for 76 hours at 37° C., then for a further 16 hours ^3H-thymidine (0.1 μCi/well, Amersham) was added in order to determine the DNA synthesis. Then the radioactively labelled cells were immobilised on filter mats and the radioactivity incorporated was measured in a β-counter. In order to determine the inhibitory activity of the compounds according to the invention the mean value of the non-stimulated cells was subtracted from the mean value of the factor-stimulated cells (in the presence or absence of the compounds according to the invention).
The relative cell proliferation was calculated as a percentage of the control (HUVEC without inhibitor) and the concentration of active substance which inhibits the proliferation of the cells by 50% (IC50) was determined.
Background: Incorporation of labelled thymidine or its analogues reports DNA synthesis.
For the molecule `CN(C)CCN(c1ccc(N/C(=C2\C(=O)Nc3cc(F)ccc32)c2ccc3c(c2)OCCO3)cc1Cl)S(C)(=O)=O` [(bd), 6-fluoro-3-(Z)-[1-(4-{N-(2-dimethylamino-ethyl)-N-methanesulphonyl-amino}-3-chloro-phenylamino)-1-(1,2-ethylenedioxyphen-4-yl)-methylene]-2-indolinone], the IC50 amounted to 5 nM.

Staying with this experiment, now noted: Homo sapiens; HUVEC proliferation stimulated with 5 ng/ml VEGF165 and 10 μg/ml heparin; 76 h incubation + 16 h 3H-thymidine.
Regarding `CCN(C)Cc1ccc(N/C(=C2\C(=O)Nc3cc(Cl)ccc32)c2ccc3c(c2)OCO3)cc1` [(c), 3-(Z)-{1-[4-(N-ethyl-N-methyl-aminomethyl)-phenylamino]-1-(3,4-methylenedioxy-phenyl)-methylene}-6-chloro-2-indolinone], the 50% inhibitory concentration (IC50) amounted to 2 nM.

As for `CN(C)CCC(=O)N(C)c1ccc(N/C(=C2\C(=O)Nc3cc(F)ccc32)c2ccc3c(c2)OCCO3)cc1` [(d), 3-(Z)-{1-[4-(N-methyl-N-{2-(dimethylamino)-ethyl-carbonyl}-amino)-phenylamino]-1-(3,4-ethylenedioxyphenyl)-methylene}-6-fluoro-2-indolinone], the IC50 stood at 3 nM. As for `Cn1cnc2cc(/C(Nc3ccc(Cn4cncn4)cc3)=C3/C(=O)Nc4cc(F)ccc43)ccc21` [(e), 3-(Z)-{1-[4-(1,2,4-triazol-1-yl-methyl)-phenylamino]-1-(1-methyl-benzimidazol-5-yl)-methylene}-6-fluoro-2-indolinone], the IC50 came out at 16 nM.

For the molecule `CN(C)Cc1ccc(N/C(=C2\C(=O)Nc3cc(Cl)ccc32)c2ccc3c(c2)OCCO3)cc1` [(g), 3-(Z)-{1-[4-(dimethylaminomethyl)-phenylamino]-1-(3,4-ethylenedioxyphenyl)-methylene}-6-chloro-2-indolinone], the IC50 turned out to be 9 nM.

On to `CN(C)CCN(c1ccc(N/C(=C2\C(=O)Nc3cc(Cl)ccc32)c2ccc3c(c2)OCCO3)cc1)S(C)(=O)=O` [(h), 3-(Z)-{1-(4-[N-methanesulphonyl-N-(2-dimethylaminoethyl)-amino]-phenylamino)-1-(3,4-ethylenedioxyphenyl)-methylene}-6-chloro-2-indolinone], for which the concentration for half-maximal inhibition (IC50) stood at 3 nM. For `COC(=O)c1ccc2c(c1)NC(=O)/C2=C(\Nc1ccc(CN(C)C)cc1)c1ccc2c(c1)OCCO2` [(i), 3-(Z)-{1-[4-(dimethylaminomethyl)-phenylamino]-1-(3,4-ethylenedioxyphenyl)-methylene}-6-methoxycarbonyl-2-indolinone], the half-inhibitory concentration (IC50) came to 0.5 nM.

For `COC(=O)c1ccc2c(c1)NC(=O)/C2=C(\Nc1ccc(N(C)C(=O)CN2CCN(C)CC2)cc1)c1ccc2c(c1)OCCO2` [(j), 3-(Z)-{1-(4-[N-methyl-N-(4-methylpiperazin-1-yl-methylcarbonyl)-amino]-phenyl-amino)-1-(3,4-ethylenedioxyphenyl)-methylene}-6-methoxycarbonyl-2-indolinone], the concentration for half-maximal inhibition (IC50) was found to be 0.2 nM. On to `CC(=O)N(CCN(C)C)c1ccc(N/C(=C2\C(=O)Nc3cc(F)ccc32)c2ccc3c(c2)OCCO3)cc1` [(k), 3-(Z)-{1-(4-[N-acetyl-N-(2-dimethylaminoethyl)-amino]-phenylamino)-1-(3,4-ethylenedioxyphenyl)-methylene}-6-fluoro-2-indolinone], for which the IC50 stood at 0.7 nM. Consider `CC(=O)N(CCCN(C)C)c1ccc(N/C(=C2\C(=O)Nc3cc(Cl)ccc32)c2ccc3c(c2)OCCO3)cc1` [(m), 3-(Z)-{1-(4-[N-acetyl-N-(3-dimethylaminopropyl)-amino]-phenylamino)-1-(3,4-ethylenedioxyphenyl)-methylene}-6-chloro-2-indolinone], for which the half-maximal inhibitory concentration (IC50) turned out to be 0.3 nM. For `CCC(=O)N(CCCN(C)C)c1ccc(N/C(=C2\C(=O)Nc3cc(Cl)ccc32)c2ccc3c(c2)OCCO3)cc1` [(n), 3-(Z)-{1-(4-[N-propionyl-N-(3-dimethylaminopropyl)-amino]-phenylamino)-1-(3,4-ethylenedioxyphenyl)-methylene}-6-chloro-2-indolinone], the concentration for half-maximal inhibition (IC50) was 1 nM.
